In paper PMC11963559, “Identification of novel thiazole derivatives as flaviviral protease inhibitors effective against Dengue (DENV2) and Japanese encephalitis viruses” (Antimicrobial Agents and Chemotherapy, 2025):

Key:
DENV2 NS2B–NS3 protease = target: T1, DENV2 NS2B–NS3 protease (Dengue virus type 2, UniProt P14340); assay: NS2B–NS3 protease steady-state kinetics and mode of inhibition; format: biochemical; settings: for mode of inhibition: both Km and Vmax reduced, Lineweaver–Burk plot; for Vmax: increasing substrate concentrations
T1 construct: Activity of recombinant dengue 2 virus NS3 protease in the presence of a truncated NS2B co-factor; The N-terminal domain of NS3 contains a highly conserved protease-active core; made in house; host or cells: Escherichia coli BL21(DE3)
T1 sequence (P14340 1476-1653): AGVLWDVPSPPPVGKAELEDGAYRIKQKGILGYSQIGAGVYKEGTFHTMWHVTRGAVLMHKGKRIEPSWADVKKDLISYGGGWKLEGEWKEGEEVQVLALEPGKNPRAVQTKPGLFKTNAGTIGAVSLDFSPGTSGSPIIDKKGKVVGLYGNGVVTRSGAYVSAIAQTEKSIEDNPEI
T1 sequence (P14340 1398-1437): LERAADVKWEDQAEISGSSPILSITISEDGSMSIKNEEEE
Description: As 3au and 3aq compounds emerged as the two most promising candidates, we characterized their NS2B–NS3 inhibitory activity in greater detail using the previously mentioned DENV NS2B–NS3 protease assay (Fig. 3D) ([39], [41]). Experiments were performed to determine the kinetic parameters, inhibition constants, and inhibition mechanisms of these compounds. Enzymatic activity and corresponding reaction velocity were measured with various substrate concentrations either in presence of the vehicle control or two different concentrations of compounds. Several inhibitory mechanisms, including competitive, uncompetitive, and mixed/non-competitive mechanisms, were explored for each compound. […] The double reciprocal plot (Lineweaver–Burk plot) ( Fig. 5C and D) also validates the mode of enzymatic inhibition against DENV NS2B–NS3 protease.
The selected compounds were analyzed using in vitro protease assays performed in black 96-well plates. Standard reaction mixtures (60 µL) containing 50 mM Tris·HCl (pH 8.5), 1 mM CHAPS, 20% glycerol, 10 nM DENV2 NS2B–NS3 protease, 10 µM inhibitor (dissolved in DMSO) or DMSO, and 10.0 µM tetra-peptide substrate trifluoroacetate-Nle-Lys-Arg-Arg-AMC (ALFA Chemicals) were added to the reaction mixture and incubated for 1 h at room temperature. All assays were performed in triplicate. The release of free AMC was measured using a Varioskan LUX multimode microplate reader (Thermo Fisher Scientific) at excitation and emission wavelengths of 380 and 460 nm, respectively. Control fluorescence values obtained in the absence of inhibitors were considered 100%, and those obtained in the presence of inhibitors were calculated as the percentage of inhibition of the control using Microsoft Excel and plotted using Origin Pro 2023b. The background AMC in the absence of protease was subtracted before data analysis. Further, protease assay was done using different concentration of the compounds (1, 10, and 100 µM) to evaluate the IC50 for the in vitro assay. IC50 curves were fitted and determined by fitting the nonlinear equation in Origin2023b software. A similar approach was used to analyze the enzymatic kinetics of protease inhibition. The reaction progress was monitored by the release of free aminomethylcoumarin (AMC), as previously described. The substrate was incubated with or without the inhibitor in the aforementioned reaction buffer in the presence of varying concentrations of the substrate. The reactions were initiated by the addition of the NS2B–NS3 protease. Protease activity was monitored for 1 h based on the initial rate of increase in fluorescence intensity at 460 nm, with an excitation wavelength of 380 nm. The results were analyzed using Origin Pro 2023b and the Michaelis–Menten equation to obtain the apparent Michaelis–Menten constants and maximal velocities. All assays were performed in triplicate. For each tested compound, […] different concentrations of the inhibitor (0, 10, and 25 µM) were used at various concentrations (0–250 μM) of the substrate. The mechanism of inhibition was determined by observing the deviations in the apparent Km and Vmax values.

[1] = MTT cytotoxicity assay in BHK-21 cells; format: cell-based, hamster; settings: hamster
Description: (§1) First, cytotoxic impact of these compounds was evaluated using MTT assay. […] Subsequently, we evaluated the effectiveness of these compounds in inhibiting DENV2 replication. BHK-21 cells were infected with the virus in presence of increasing concentration of these compounds, and harvested at 24 hpi. The virus replication rate was assessed by quantifying the copy number of viral genomic RNA using quantitative real-time PCR (qRT-PCR).
(§2) The MTT assay was performed to determine cellular metabolic activity as an indicator of cell viability, proliferation, and cytotoxicity. Thus, to determine whether these compounds had any toxic effects on cellular viability, an MTT assay was performed following the protocol described previously by Mosmann (1983) ([55], [56]). Briefly, BHK-21 and SH-SHY5Y cells were seeded into 96-well plates at a density of 20,000 cells/well. Almost 16–18 h later, the cells were treated with different concentrations of the compounds (3au and 3aq) for 24 h at 37 °C in 5% CO2. Thereafter, the medium was aspirated, and 100 µL of MTT reagent (5 mg/mL, SRL) in PBS was added to the cells and incubated for 3 h at 37 °C. Formazan crystals were formed in each well and resuspended in 100 µL of dimethyl sulfoxide (DMSO) (Sigma, USA) at room temperature for 20 min to completely dissolve the crystals. The absorbance of the solution in a 96-well plate was measured at 595 nm using a microplate reader (Epoch 2; BioTek Instruments). Each experiment was performed in triplicate, and the percentage of cell viability was determined as the ratio of the absorbance values of the experimental samples to the control solvent (DMSO) on the same plate.

BHK-21 cells = assay: MTT cytotoxicity assay in BHK-21 cells; format: cell-based, hamster; settings: 24 h
Description: as §1, §2

JEV = assay: Time of drug addition assay, JEV in BHK-21 cells; format: cell-based; settings: JEV MOI 0.1, BHK-21, 10 µM, viral RNA at 24 hpi
Description: Considering the mode of action of the compounds 3au and 3aq, they should satisfy this criteria. To evaluate this potential, time of addition experiment was conducted for both compounds to inhibit JEV infection. BHK-21 cells and the virus were pre-treated for 3 h with 10 µM of compounds followed by infection and subsequent incubation in presence of the same (pre + during + post). Alternatively, the compounds (10 µM) were added either during the infection (during + post) or at different times post-infection as indicated (Fig. 9C and D). Virus amplification was measured at 24 hpi by measuring viral RNA accumulation as described above. […] This sustained inhibition indicates a potential therapeutic window for intervention, highlighting the compounds' ability to impede viral replication after initial infection. […] Together, our data not only established the antiviral activity of the compounds against DENV2 and JEV but also pointed out the mechanism of action of these compounds during the specific steps of the virus life cycle.
BHK-21 cells were seeded in a 12-well cell culture plate at a density of (0.5 × 10^6 cells/well). Upon 85%–90% confluency, cells were infected with JEV virus at an MOI of 0.1. Cells were incubated for 1.5 h at 37 °C. […] Cells were harvested at 24 hpi, and the viral genomic RNA levels were quantified using qRT-PCR.

SMILES	mode of inhibition (DENV2 NS2B–NS3 protease)	Vmax (DENV2 NS2B–NS3 protease; inhibitor 10 μM)	Vmax (DENV2 NS2B–NS3 protease; inhibitor 25 μM)	CC50 at 24 h [1]	non-toxic concentration (BHK-21 cells)	inhibition of viral replication by time of addition (JEV)
COc1ccc(-c2csc(N/N=C(\C)c3ccc(O)cc3)n2)cc1 [3aq]	uncompetitive	52.1 ± 3.3	18.4 ± 0.9	82 ± 2.38 µM	up to 25 µM	significantly inhibited viral replication even when added at 9 hpi
COc1ccc(-c2csc(N/N=C(\C)c3cc(O)cc(O)c3)n2)cc1 [3au]	uncompetitive	38.9 ± 1.9	21.4 ± 0.7	76.6 ± 2.74 µM	up to 25 µM	significantly inhibited viral replication even when added at 9 hpi
